Measurements reported in patent US20260042764A1, “COMPOSITIONS AND METHODS FOR INHIBITION OF KRAS” (TheRas, Inc., priority 2022, published 2026).

Legend:
[1] = molecular target: T1, Avi-KRAS G12D (1-169) GppNHp/RAF1 RBD-3xFLAG (52-151) (Homo sapiens, UniProt P01116, G12D); experiment: Raf1-KRAS G12D-GppNHP disruption HTRF assay (Biological Example 1); type: binding; conditions: KRAS G12D, GppNHp-loaded; class symbols
T1 construct: Avi-KRAS G12D (1-169)
How it was run: (§1)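 HTRF PPI disruption; buffer 50 mM Tris pH 7.5, 100 mM NaCl, 5 mM MgCl2, 0.1% BSA, 0.01% Tween, 10% DMSO. Protein mix 1 h RT shaking, reagent mix 1 h RT shaking. Data as % activity vs DMSO (100%).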

[2] = molecular target: T2, Avi-KRAS G12V (1-169) GppNHp/RAF1 RBD-3xFLAG (52-151) (Homo sapiens, UniProt P01116, G12V); experiment: Raf1-KRAS G12V-GppNHP disruption HTRF assay (Biological Example 1); type: binding; conditions: KRAS G12V, GppNHp-loaded; class symbols
T2 construct: Avi-KRAS G12V (1-169)
How it was run: as §1

GP2d cells (KRAS G12D) = experiment: Cell-based pERK HTRF assay in GP2d cell (Biological Example 2); conditions: GP2d (KRAS G12D) cells
How it was run: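 GP2d (KRAS G12D) cells were plated in DMEM/10% FBS and treated the next day for 60 min with compounds. Dosing used 9-point half-log series starting at 1 μM or 100 nM in 0.25% DMSO. Lysates were read by HTRF pERK (d2/Eu cryptate antibodies) after 4–24 h at room temperature, with excitation at 320 nm and emission at 615 nm.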

[3] = molecular target: T3, Avi-KRAS G12V (2-169) GTP/RAF1 RBD-3xFLAG (51-131) (Homo sapiens, UniProt P01116, G12V); experiment: Raf1-KRAS G12V-GTP disruption HTRF assay (Biological Example 3); type: binding; conditions: KRAS G12V, GTP-loaded
T3 construct: Avi-KRAS G12V (2-169)
How it was run: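 Compounds were titrated 10-point, 3-fold from 30 μM against preformed KRAS-GTP:RAF1 RBD (51-131) complexes at 50 nM, using KRAS 2-169 as WT, G12C, G12D or G12V. After 1 h at room temperature in Tris pH 7.5 buffer with MgCl2 and 10% DMSO, time-resolved fluorescence was read. Results are percent activity versus DMSO.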

T1 sequence (P01116 1-169 isoform P01116-2 G12D): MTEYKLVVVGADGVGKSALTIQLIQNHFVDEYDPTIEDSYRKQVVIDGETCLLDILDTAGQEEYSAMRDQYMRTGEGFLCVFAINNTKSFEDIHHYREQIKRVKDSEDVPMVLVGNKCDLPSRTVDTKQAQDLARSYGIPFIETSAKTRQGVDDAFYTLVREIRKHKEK
T2 sequence (P01116 1-169 isoform P01116-2 G12V): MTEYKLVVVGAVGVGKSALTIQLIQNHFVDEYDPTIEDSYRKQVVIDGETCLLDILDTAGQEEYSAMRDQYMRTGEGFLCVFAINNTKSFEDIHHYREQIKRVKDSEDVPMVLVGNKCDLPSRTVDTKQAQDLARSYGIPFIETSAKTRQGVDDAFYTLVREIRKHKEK
T3 sequence (P01116 2-169 isoform P01116-2 G12V): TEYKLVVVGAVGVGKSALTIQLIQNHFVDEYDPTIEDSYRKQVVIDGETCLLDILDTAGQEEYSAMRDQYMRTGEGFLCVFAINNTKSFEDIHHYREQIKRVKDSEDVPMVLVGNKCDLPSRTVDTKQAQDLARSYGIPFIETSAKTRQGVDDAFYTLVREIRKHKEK

SMILES | IC50 [1] | IC50 [2] | IC50 (GP2d cells (KRAS G12D); GP2d) | IC50 (GP2d cells (KRAS G12D); GP2d, pERK HTRF, class symbols) | IC50 [3] | IC50 (GP2d cells (KRAS G12D))
CCN(c1nc(OC[C@@]23CCCN2C[C@H](F)C3)nc2c(F)c(-c3ccc(F)c4sc(N)c(C#N)c34)c(C(F)(F)F)cc12)[C@H]1CCN(C(=O)N2CC(OC)C2)C1 (atropisomer, axis not shown) [Compound 607] | < 100 nM | < 100 nM | < 100 nM | < 100 nM | ≤ 100 nM | 
CC(=O)N1CC[C@H](N(c2nc(OC[C@@]34CCCN3C[C@H](F)C4)nc3c(F)c(-c4ccc(F)c5sc(N)c(C#N)c45)c(C(F)(F)F)cc23)C2CC2)C1 (atropisomer, axis not shown) [Compound 608] | < 100 nM | 100 to 1000 nM | < 100 nM | < 100 nM | 100 to 1000 nM | 
C[C@H]1Cn2nc(C(=O)N(C)C)cc2CN1c1nc(OC[C@@]23CCCN2C[C@H](F)C3)nc2c(F)c(-c3ccc(F)c4sc(N)c(C#N)c34)c(C(F)(F)F)cc12 (atropisomer, axis not shown) [Compound 610] | < 100 nM | 100 to 1000 nM | < 100 nM | < 100 nM | 100 to 1000 nM | 
CCN(c1nc(OC[C@@]23CCCN2C[C@H](F)C3)nc2c(F)c(-c3ccc(F)c4sc(N)c(C#N)c34)c(C(F)(F)F)cc12)[C@H]1CCN(C(=O)CC(F)F)C1 (atropisomer, axis not shown) [Compound 611] | < 100 nM | < 100 nM | < 100 nM | < 100 nM | ≤ 100 nM | 
CCN(c1nc(OC[C@@]23CCCN2C[C@H](F)C3)nc2c(F)c(-c3ccc(F)c4sc(N)c(C#N)c34)c(C(F)(F)F)cc12)[C@H]1CC(=O)N(CC(F)F)C1 (atropisomer, axis not shown) [Compound 613] | 100 to 1000 nM | 100 to 1000 nM | < 100 nM | < 100 nM | ≤ 100 nM | 
CCN(c1nc(OC[C@@]23CCCN2C[C@H](F)C3)nc2c(F)c(-c3ccc(F)c4sc(N)c(C#N)c34)c(C(F)(F)F)cc12)[C@H]1CC(=O)N(C)C1 (atropisomer, axis not shown) [Compound 614] | < 100 nM | < 100 nM | < 100 nM | < 100 nM | 100 to 1000 nM | 
CCN(c1nc(OC[C@@]23CCCN2C[C@H](F)C3)nc2c(F)c(-c3ccc(F)c4sc(N)c(C#N)c34)c(C(F)(F)F)cc12)[C@H]1CC(=O)N(C2CC2)C1 (atropisomer, axis not shown) [Compound 615] | < 100 nM | < 100 nM | < 100 nM | < 100 nM | ≤ 100 nM | 
CCN(c1nc(OC[C@@]23CCCN2C[C@H](F)C3)nc2c(F)c(-c3ccc(F)c4sc(N)c(C#N)c34)c(C(F)(F)F)cc12)[C@H]1CCN(C(=O)N2CCN(C(C)=O)CC2)C1 (atropisomer, axis not shown) [Compound 619] | < 100 nM | < 100 nM | < 100 nM | < 100 nM | 100 to 1000 nM | 
CC(=O)N1CC[C@H](N(CCF)c2nc(OC[C@@]34CCCN3C[C@H](F)C4)nc3c(F)c(-c4ccc(F)c5sc(N)c(C#N)c45)c(C(F)(F)F)cc23)C1 (atropisomer, axis not shown) [Compound 622] | < 100 nM | < 100 nM | < 100 nM | < 100 nM | 100 to 1000 nM | 
CCN1C[C@@H](N(C)c2nc(OC[C@@]34CCCN3C[C@H](F)C4)nc3c(F)c(-c4ccc(F)c5sc(N)c(C#N)c45)c(C(F)(F)F)cc23)CC1=O (atropisomer, axis not shown) [Compound 636] | < 100 nM | < 100 nM | < 100 nM | < 100 nM | 100 to 1000 nM | 
CCN(c1nc(OC[C@@]23CCCN2C[C@H](F)C3)nc2c(F)c(-c3ccc(F)c4sc(N)c(C#N)c34)c(C(F)(F)F)cc12)[C@H]1CCN(C(=O)C2CN(C(C)=O)C2)C1 (atropisomer, axis not shown) [Compound 638] | < 100 nM | < 100 nM | < 100 nM | < 100 nM | ≤ 100 nM | 
C=C(C)C(=O)N1CC[C@H](N(CC)c2nc(OC[C@@]34CCCN3C[C@H](F)C4)nc3c(F)c(-c4ccc(F)c5sc(N)c(C#N)c45)c(C(F)(F)F)cc23)C1 (atropisomer, axis not shown) [Compound 673] | < 100 nM | < 100 nM | < 100 nM | < 100 nM | 100 to 1000 nM | 
C/C=C/C(=O)N1CC[C@H](N(CC)c2nc(OC[C@@]34CCCN3C[C@H](F)C4)nc3c(F)c(-c4ccc(F)c5sc(N)c(C#N)c45)c(C(F)(F)F)cc23)C1 (atropisomer, axis not shown) [Compound 674] | < 100 nM | < 100 nM | 100 to 1000 nM | < 100 nM | ≤ 100 nM | 
CCN(c1nc(OC[C@@]23CCCN2C[C@H](F)C3)nc2c(F)c(-c3ccc(F)c4sc(N)c(C#N)c34)c(C(F)(F)F)cc12)[C@H]1CCN(C(=O)O[C@@H]2CCOC2)C1 (atropisomer, axis not shown) [Compound 683] | < 100 nM | < 100 nM | < 100 nM | < 100 nM | ≤ 100 nM | 
CCN(c1nc(OC[C@@]23CCCN2C[C@H](F)C3)nc2c(F)c(-c3ccc(F)c4sc(N)c(C#N)c34)c(C(F)(F)F)cc12)[C@H]1CCN(C(=O)[C@@H]2C[C@@H]2C)C1 (atropisomer, axis not shown) [Compound 689] | < 100 nM | < 100 nM | < 100 nM | < 100 nM | 100 to 1000 nM | 
CCN(c1nc(OC[C@@]23CCCN2C[C@H](F)C3)nc2c(F)c(-c3ccc(F)c4sc(N)c(C#N)c34)c(C(F)(F)F)cc12)[C@H]1C[C@H](COC)N(C(=O)C2CC2)C1 (atropisomer, axis not shown) [Compound 696] | < 100 nM | < 100 nM | < 100 nM | < 100 nM | 100 to 1000 nM | 
CCN(c1nc(OC[C@@]23CCCN2C[C@H](F)C3)nc2c(F)c(-c3ccc(F)c4sc(N)c(C#N)c34)c(C(F)(F)F)cc12)[C@@H]1CC(=O)N(C2CC2)C1 (atropisomer, axis not shown) [Compound 703] | 100 to 1000 nM | 1000 to 10000 nM |  | < 100 nM | 1000 to 10000 nM | < 100 nM
CCN(c1nc(OC[C@@]23CCCN2C[C@H](F)C3)nc2c(F)c(-c3ccc(F)c4sc(N)c(C#N)c34)c(C(F)(F)F)cc12)[C@H]1C[C@H](C)N(C(=O)OC)C1 (atropisomer, axis not shown) [Compound 704] | < 100 nM | < 100 nM | < 100 nM | < 100 nM | 100 to 1000 nM | 
CCN(c1nc(OC[C@@]23CCCN2C[C@H](F)C3)nc2c(F)c(-c3ccc(F)c4sc(N)c(C#N)c34)c(C(F)(F)F)cc12)[C@H]1CCN(C(=O)c2ccns2)C1 (atropisomer, axis not shown) [Compound 726] | < 100 nM | < 100 nM | < 100 nM | < 100 nM | 100 to 1000 nM | 
CCN(c1nc(OC[C@@]23CCCN2C[C@H](F)C3)nc2c(F)c(-c3ccc(F)c4sc(N)c(C#N)c34)c(C(F)(F)F)cc12)[C@H]1CCN(C(=O)N(C)C)[C@@H]1C (atropisomer, axis not shown) [Compound 749] | < 100 nM | < 100 nM | < 100 nM | < 100 nM | ≤ 100 nM | 
